This test deals with soybean rust fungus (Phakopsora pachyrhizi) having an amino acid substitution of F129L in a mitochondrial cytochrome b protein. Briefly: Leaf disc test: preventive spray, then inoculation with soybean rust fungus spores, lesion area investigated. In kind it is in vivo. As to conditions: Comparative Test Example 1 (Table A). On the procedure: A true leaf of a soybean (cultivar: Kurosengoku) was cut into a diameter of 1 cm to prepare each leaf disc. To each well of a 24 well microplate was dispensed 1 mL of an agar medium (agar concentration 1.2%), and then one of said leaf disc was placed on each well. To a mixture of Sorpol (registered trademark) 1200KX (0.5 µL), DMSO (4.5 µL), and xylene (5 µL) was added a DMSO solution (20 µL) comprising a test compound (10000 ppm), and the resulting mixture was mixed. The resulting mixture was diluted with ion exchange water to prepare a spray solution comprising a prescribed concentration of the test compound. Said spray solution was sprayed into each leaf disc at a ratio of 10 µL per leaf disc. After 1 day, an aqueous suspension of spores of soybean rust fungus (Phakopsora pachyrhizi) having an amino acid substitution of F129L in a mitochondrial cytochrome b protein (1.0 × 10^5/mL) was inoculated by spraying on each leaf disc. After the inoculation, the microplate was placed into an artificial climate chamber (Lighting: 6 hours, Lights-out: 18 hours, Temperature: 23° C., Humidity: 60%). After 1 day, the leaf discs were air-dried until water droplets on the surfaces of the leaf discs disappeared, and the microplate was placed into the artificial climate chamber again for 12 days. Then, lesion area of soybean rust was investigated. As a result, when the prescribed concentration was 50 ppm, each lesion area of leaf disc treated with any one of the Present compound 2, 6, 8, 25, 29, or 35 as the test compound was 30% or less relative to the lesion area of non-treated leaf disc.
Here, the term of “non-treated” means that a spray solution comprising a test compound was not sprayed into a leaf disc.
Each test is carried out according to the Test Example 1 by using any one of the Present compound S as the test compound with a prescribed concentration of 12.5 ppm. As a result, control effects on soybean rust can be confirmed in the leaf discs treated with test compounds.
Each test is carried out according to the Test Example 1 by using any one of the Present compound S as the test compound with a prescribed concentration of 3.1 ppm. As a result, control effects on soybean rust can be confirmed in the leaf discs treated with test compounds.
Each test was carried out according to the Test Example 1 by using the Present compound 2, 6, 8, 29 or 35, or azoxystrobin, dimoxystrobin, or metominostrobin as the test compound with a prescribed concentration of 50 ppm.

On to `CO/C=C(/C(=O)OC)c1ccccc1Oc1cc(Oc2ccccc2C#N)ncn1` [Azoxystrobin, azoxystrobin, reference compound], for which the “Lesion area (%) at the concentration of 50 ppm” value (from here on “Lesion area (%)”) stood at 100%.

Turning to `CNC(=O)/C(=N/OC)c1ccccc1COc1cc(C)ccc1C` [Dimoxystrobin, dimoxystrobin, reference compound], the “Lesion area (%)” value is on record as 100%.

Regarding `CNC(=O)/C(=N/OC)c1ccccc1Oc1ccccc1` [Metominostrobin, metominostrobin, reference compound], the “Lesion area (%)” value is 100%.

As for `CO/C=C(/C(=O)OC)c1cccc2oc(-c3ccccc3)nc12` [Present compound 2], the “Lesion area (%)” value was 10%.

In the case of `CO/C=C(/C(=O)OC)c1cccc2sc(-c3ccccc3)nc12` [Present compound 6], the “Lesion area (%)” value amounted to 30%.

Regarding `CO/C=C(/C(=O)OC)c1cccc2ccc(-c3ccccc3)cc12` [Present compound 8], the “Lesion area (%)” value turned out to be 0%.

As to `Cn1nc(Cl)n(-c2cccc3oc(Cc4ccccc4)nc23)c1=O` [Present compound 29], the “Lesion area (%)” value is 10%.

Turning to `Cn1nc(Cl)n(-c2cccc3oc(COc4ccccc4)nc23)c1=O` [Present compound 35], the “Lesion area (%)” value came out at 0%.
